Experiments:
Assay type in all cases: in vitro ADME
CYP2E1 = CYP2E1 (Homo sapiens, UniProt P05181); assay: Metabolite formation by recombinant human CYP2E1; conditions: trazodone 4 μM; NADPH; 37 °C, 40 min
Method: (§1) To confirm the role of individual CYP isoforms in metabolizing trazodone, recombinant human and rat CYP enzymes were employed in separate incubations. […] Each reaction was terminated with acetonitrile, centrifuged, and the supernatant was analyzed by identical UHPLC-Orbitrap setup outlined in §2.2, allowing direct comparison of metabolite spectra across all in-vitro systems. […] This procedure helped confirm the contributions of individual isoforms to specific biotransformation reactions.

CYP3A9 = molecular target: T1, CYP3A9 (Rattus norvegicus, UniProt P51538); assay: Metabolite formation by recombinant rat CYP3A9; conditions: trazodone 4 μM; NADPH; 37 °C, 40 min
T1 sequence (P51538 1-503): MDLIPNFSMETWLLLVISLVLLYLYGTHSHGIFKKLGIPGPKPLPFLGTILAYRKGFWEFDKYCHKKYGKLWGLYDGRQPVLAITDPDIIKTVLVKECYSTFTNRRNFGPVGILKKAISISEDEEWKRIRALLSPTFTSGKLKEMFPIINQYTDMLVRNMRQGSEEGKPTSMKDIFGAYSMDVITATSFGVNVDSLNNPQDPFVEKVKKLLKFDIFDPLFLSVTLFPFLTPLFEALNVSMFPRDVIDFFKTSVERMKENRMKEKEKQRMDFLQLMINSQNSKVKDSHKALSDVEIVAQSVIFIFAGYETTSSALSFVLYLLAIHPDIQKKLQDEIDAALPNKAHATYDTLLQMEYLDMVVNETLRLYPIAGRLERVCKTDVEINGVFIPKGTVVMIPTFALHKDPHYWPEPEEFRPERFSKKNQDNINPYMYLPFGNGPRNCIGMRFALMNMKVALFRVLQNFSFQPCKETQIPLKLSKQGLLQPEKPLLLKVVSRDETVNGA
Method: Each reaction was terminated with acetonitrile, centrifuged, and the supernatant was analyzed by identical UHPLC-Orbitrap setup outlined in §2.2, allowing direct comparison of metabolite spectra across all in-vitro systems.

CYP2D6 = CYP2D6 (Homo sapiens, UniProt P10635); assay: Metabolite formation by recombinant human CYP2D6; conditions: trazodone 4 μM; NADPH; 37 °C, 40 min
Method: as §1

CYP2C11 = molecular target: T2, CYP2C11 (Rattus norvegicus, UniProt P08683); assay: Metabolite formation by recombinant rat CYP2C11; conditions: trazodone 4 μM; NADPH; 37 °C, 40 min
T2 sequence (P08683 1-500): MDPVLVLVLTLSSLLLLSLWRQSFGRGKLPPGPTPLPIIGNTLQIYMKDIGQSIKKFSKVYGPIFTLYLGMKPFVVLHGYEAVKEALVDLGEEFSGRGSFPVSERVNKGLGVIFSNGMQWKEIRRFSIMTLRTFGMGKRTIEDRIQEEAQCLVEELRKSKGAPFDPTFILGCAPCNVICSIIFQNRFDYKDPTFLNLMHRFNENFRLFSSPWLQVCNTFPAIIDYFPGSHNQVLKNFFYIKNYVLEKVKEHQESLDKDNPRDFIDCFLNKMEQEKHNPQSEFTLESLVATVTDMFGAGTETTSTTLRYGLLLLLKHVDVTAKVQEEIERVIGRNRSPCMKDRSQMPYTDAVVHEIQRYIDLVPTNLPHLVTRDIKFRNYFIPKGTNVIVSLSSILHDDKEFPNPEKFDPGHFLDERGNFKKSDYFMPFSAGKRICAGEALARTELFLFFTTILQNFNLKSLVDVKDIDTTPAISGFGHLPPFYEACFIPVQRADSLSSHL
Method: as §1

CYP2A6 = molecular target: T3, CYP2A6 (Homo sapiens, UniProt P11509); assay: Metabolite formation by recombinant human CYP2A6; conditions: trazodone 4 μM; NADPH; 37 °C, 40 min
T3 sequence (P11509 1-494): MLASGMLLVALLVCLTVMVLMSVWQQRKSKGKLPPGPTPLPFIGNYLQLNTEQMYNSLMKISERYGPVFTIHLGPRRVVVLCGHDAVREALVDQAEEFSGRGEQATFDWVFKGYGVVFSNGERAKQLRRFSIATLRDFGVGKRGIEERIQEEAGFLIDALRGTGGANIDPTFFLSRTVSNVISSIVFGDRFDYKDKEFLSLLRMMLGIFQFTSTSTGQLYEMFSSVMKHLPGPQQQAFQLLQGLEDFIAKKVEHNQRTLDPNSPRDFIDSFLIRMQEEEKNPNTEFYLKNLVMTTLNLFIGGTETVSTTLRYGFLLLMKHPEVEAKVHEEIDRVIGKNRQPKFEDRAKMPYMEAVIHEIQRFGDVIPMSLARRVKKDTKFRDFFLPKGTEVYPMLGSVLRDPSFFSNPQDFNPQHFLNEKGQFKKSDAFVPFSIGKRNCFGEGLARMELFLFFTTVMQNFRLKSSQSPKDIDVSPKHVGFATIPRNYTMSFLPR
Method: as §1

MAOA = molecular target: T4, MAOA (Homo sapiens, UniProt P21397); assay: Metabolite formation by recombinant human MAOA; conditions: trazodone 4 μM; 37 °C, 40 min
T4 sequence (P21397 1-527): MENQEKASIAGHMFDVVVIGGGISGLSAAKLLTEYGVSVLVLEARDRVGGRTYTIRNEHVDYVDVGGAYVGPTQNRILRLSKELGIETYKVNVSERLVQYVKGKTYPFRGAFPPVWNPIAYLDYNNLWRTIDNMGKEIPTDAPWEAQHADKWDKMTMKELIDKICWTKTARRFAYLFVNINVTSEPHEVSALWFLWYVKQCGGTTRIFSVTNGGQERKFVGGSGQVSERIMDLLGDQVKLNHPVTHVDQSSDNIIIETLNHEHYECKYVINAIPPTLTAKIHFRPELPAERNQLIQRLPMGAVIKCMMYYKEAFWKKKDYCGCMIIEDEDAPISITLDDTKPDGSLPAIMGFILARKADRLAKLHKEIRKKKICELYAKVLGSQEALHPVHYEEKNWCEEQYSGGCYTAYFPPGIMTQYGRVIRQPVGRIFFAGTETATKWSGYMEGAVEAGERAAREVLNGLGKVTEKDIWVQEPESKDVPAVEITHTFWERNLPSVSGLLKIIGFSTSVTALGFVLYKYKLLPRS

CYP2C19 = CYP2C19 (Homo sapiens, UniProt P33261); assay: Metabolite formation by recombinant human CYP2C19; conditions: trazodone 4 μM; NADPH; 37 °C, 40 min
Method: as §1

CYP2E1, sequence (P05181 whole entry, canonical isoform): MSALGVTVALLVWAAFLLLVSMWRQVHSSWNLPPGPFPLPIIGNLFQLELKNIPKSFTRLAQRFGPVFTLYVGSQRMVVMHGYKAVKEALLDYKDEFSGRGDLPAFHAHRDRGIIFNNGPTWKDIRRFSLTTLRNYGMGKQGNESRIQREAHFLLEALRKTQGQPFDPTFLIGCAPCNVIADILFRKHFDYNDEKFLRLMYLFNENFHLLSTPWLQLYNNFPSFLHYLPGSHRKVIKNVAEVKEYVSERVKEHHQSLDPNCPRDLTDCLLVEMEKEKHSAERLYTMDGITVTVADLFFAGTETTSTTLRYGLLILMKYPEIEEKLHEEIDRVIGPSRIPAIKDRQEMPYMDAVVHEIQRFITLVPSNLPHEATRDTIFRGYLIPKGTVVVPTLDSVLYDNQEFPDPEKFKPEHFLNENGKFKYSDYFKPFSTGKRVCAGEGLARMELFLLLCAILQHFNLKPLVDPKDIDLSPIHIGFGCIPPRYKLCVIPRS
CYP2D6, sequence (P10635 whole entry): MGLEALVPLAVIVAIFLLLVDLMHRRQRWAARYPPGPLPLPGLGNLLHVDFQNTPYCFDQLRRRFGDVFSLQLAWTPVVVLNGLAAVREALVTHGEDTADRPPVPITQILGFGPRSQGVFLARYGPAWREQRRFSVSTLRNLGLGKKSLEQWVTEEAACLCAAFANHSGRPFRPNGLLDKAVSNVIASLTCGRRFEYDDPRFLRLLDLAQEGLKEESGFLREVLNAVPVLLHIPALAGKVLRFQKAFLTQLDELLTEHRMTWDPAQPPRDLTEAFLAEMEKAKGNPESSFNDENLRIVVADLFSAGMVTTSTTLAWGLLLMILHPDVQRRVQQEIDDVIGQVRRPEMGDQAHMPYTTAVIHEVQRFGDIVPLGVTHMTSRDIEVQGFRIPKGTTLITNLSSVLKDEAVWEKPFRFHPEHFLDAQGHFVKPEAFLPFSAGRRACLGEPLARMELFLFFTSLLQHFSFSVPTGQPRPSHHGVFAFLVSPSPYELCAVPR
CYP2C19, sequence (P33261 whole entry): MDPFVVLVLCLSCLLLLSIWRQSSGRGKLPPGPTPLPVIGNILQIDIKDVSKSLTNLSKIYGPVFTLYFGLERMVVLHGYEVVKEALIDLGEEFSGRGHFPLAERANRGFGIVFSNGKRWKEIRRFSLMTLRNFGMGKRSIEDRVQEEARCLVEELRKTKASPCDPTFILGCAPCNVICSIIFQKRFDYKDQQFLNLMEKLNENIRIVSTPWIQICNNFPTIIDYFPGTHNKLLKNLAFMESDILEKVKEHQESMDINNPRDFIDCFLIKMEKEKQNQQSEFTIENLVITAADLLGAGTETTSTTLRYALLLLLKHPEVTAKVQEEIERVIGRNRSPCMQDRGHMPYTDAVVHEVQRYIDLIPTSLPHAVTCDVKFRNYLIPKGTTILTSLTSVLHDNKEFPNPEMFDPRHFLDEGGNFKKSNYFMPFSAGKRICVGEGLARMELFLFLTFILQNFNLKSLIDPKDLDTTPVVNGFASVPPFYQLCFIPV

SMILES | Formation of trazodone phase I metabolite by recombinant human CYP2E1 (as LC/MS peak areas) (CYP2E1) | Formation of trazodone phase I metabolite by recombinant rat CYP3A9 (as LC/MS peak areas) (CYP3A9) | Formation of trazodone phase I metabolite by recombinant human CYP2D6 (as LC/MS peak areas) (CYP2D6) | Formation of trazodone phase I metabolite by recombinant rat CYP2C11 (as LC/MS peak areas) (CYP2C11) | Formation of trazodone phase I metabolite by recombinant human CYP2A6 (as LC/MS peak areas) (CYP2A6) | Formation of trazodone phase I metabolite by recombinant human MAOA (as LC/MS peak areas) (MAOA) | Formation of trazodone phase I metabolite by recombinant human CYP2C19 (as LC/MS peak areas) (CYP2C19)
O=c1n(CCCN2CCNCC2)nc2ccccn12 [Metabolite M15] | 0 | 719 | 0 | 1210 | 0 | 0 | 180
O=c1n(CCCO)nc2ccccn12 [Metabolite M20] | 0 | 1080 | 0 | 743 | 0 | 0 | 0
Clc1cccc(N2CCNCC2)c1 [mCPP, m-chlorophenylpiperazine] | 16 | 18577 | 0 | 6920 | 8 | 28 | 189

From paper PMC12518996 (Frontiers in Pharmacology, 2025)
